Assay [1] concerns the target T1, potassium ion channel hERG (Homo sapiens, UniProt Q12809).
T1 construct: expressed in transfected cells; host or cells: Chinese hamster ovary K1 (CHO)
In words: Assay 5 hERG assay (patch clamp, CHO cells over-expressing hERG). It counts as cell-based. The conditions noted are these: SyncroPatch 384PE, room temperature, geometric mean, read-out: Assay 5 (hERG Hu CHO if EPh CR-Syncro) GMean IC50. The method in brief:
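hERG currents recorded by automated patch clamp at room temperature in CHO-K1 cells, 6-point cumulative concentrations. SyncroPatch runs used KF-based internal (pH 7.2) and NMDG-containing external solution (pH 7.4), 0.33% DMSO; QPatchII runs used 2% or 0.4% DMSO. Only wells meeting seal-resistance and current-size criteria kept.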
A general note: Block of hERG is tested as a sign of cardiac risk.

Assay [2] has as its target GSK3β (Glycogen synthase kinase-3 beta) (Homo sapiens, UniProt P49841). In words: Assay 6 GSK3β assay (ThermoFisher Z-Lyte FRET). Format: biochemical. The conditions noted are these: ATP Conc: 10 μM, geometric mean; read-out: Assay 6 (GSK3β FRET-Z-Lyte Cr) GMean IC50. In short, it runs like this:
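Z-Lyte FRET: 0.22-0.92 ng kinase with 2 μM Ser/Thr 09 peptide in HEPES pH 7.5, MgCl2, EGTA, 60 min at room temperature, then 60 min development. Compounds in 1% DMSO, 10-point 3-fold series from 10 μM; sigmoidal dose-response fit.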

Assay [3] addresses T2, PCSK9 (Homo sapiens, UniProt Q8NBP7, G670E/V474I). Briefly: biochemical.
The target in assay [4] is T2, PCSK9. In words: Assay 3 PCSK9 LDL-C uptake assay in HepG2 cells. It counts as cell-based. Further details: TEV site (C); His6 (C); host or cells: added to HepG2 (ATCC #HB-8065). The conditions noted are these: 125 nM PCSK9, pHrodo Red-LDL, read-out: Assay 3 LDL uptake potency. The source says:
This assay measures for PCSK9 antagonist activity based on a test compound's capacity to restore LDL-C-uptake in HepG2 cells. The assay is based on exogenous PCSK9 and LDL-C complexed with a pH-sensitive dye. Outside the cells, at neutral pH, the pHrodo Red-LDL is dimly fluorescent but upon LDLR mediated endocytosis it fluoresces brightly. PCSK9 traffics the LDLR to intracellular degradation and reduces uptake of LDL-C. Inhibition of PCSK9 reduces LDLR degradation and the increased LDL-C uptake is quantified by fluorescence microscopy.
• Cell medium: MEM supplemented with 10% FBS, 1×NEAA and Sodium Pyruvate • Assay medium: OptiMem supplemented with penicillin/streptomycin • Cells: HepG2 (ATCC #HB-8065)
• 1. Cryopreserved HepG2 cells were thawed in assay medium and centrifuged for 5 min at 250 g. Supernatant was discarded and the cell pellet resuspended in cell medium and counted with a Nucleocounter. Cells were again centrifuged 5 min at 250 g and the pellet was resuspended to 500000 cells/mL in assay medium. • 2. 20 μL of above cell mix was dispensed into black μclear TC treated 384 well plates with Multidrop Combi and left at room temperature for 20 minutes. • 3. Plates were incubated at 37° C., 5% CO2 for 24 h
• 1. Test compounds were prepared in concentration response in DMSO with a half-log dilution factor in DMSO in Echo 384 LDV plates starting at 10 mM. • 2. 30 nL of above test compounds were dispensed with Echo 655 to cells for a top concentration of 10 μM • 3. 10 μL PCSK9 in assay medium was dispensed to cells with Multidrop Combi for 125 nM final concentration in the wells. • 4. Plates were incubated at 37° C., 5% CO2 for 24 h
• 1. 10 μL pHrodo Red-LDL in assay medium was dispensed to cells with Multidrop Combi for […] • 2. Plates were incubated at 37° C., 5% CO2 and imaged with the Incucyte S3 after 4 h and 24 h
Image data was processed using Incucyte 2021, a software to identify cells and red fluorescent intensity. Screener was used to further process data. Data was normalized as % effect of the signal between median values of the on-plate controls of DMSO and 100 nM Evolocumab according to the formula % effect=−100*(x−DMSO)/(Evolocumab−DMSO) where x equals the measured signal. Concentration response data of the normalized values were fitted using a four-parameter logistic fit.

We go through 16 molecules from patent publication US20240228469A1, “PCSK9 INHIBITORS AND METHODS OF USE THEREOF” (AstraZeneca AB, priority 2022, published 2024).

pEC50, pIC50: −log10 of the molar value. Where only a bound is given, the exact number is not on record here.

T2 sequence (Q8NBP7 with tags, fused parts or gaps V474I/G670E): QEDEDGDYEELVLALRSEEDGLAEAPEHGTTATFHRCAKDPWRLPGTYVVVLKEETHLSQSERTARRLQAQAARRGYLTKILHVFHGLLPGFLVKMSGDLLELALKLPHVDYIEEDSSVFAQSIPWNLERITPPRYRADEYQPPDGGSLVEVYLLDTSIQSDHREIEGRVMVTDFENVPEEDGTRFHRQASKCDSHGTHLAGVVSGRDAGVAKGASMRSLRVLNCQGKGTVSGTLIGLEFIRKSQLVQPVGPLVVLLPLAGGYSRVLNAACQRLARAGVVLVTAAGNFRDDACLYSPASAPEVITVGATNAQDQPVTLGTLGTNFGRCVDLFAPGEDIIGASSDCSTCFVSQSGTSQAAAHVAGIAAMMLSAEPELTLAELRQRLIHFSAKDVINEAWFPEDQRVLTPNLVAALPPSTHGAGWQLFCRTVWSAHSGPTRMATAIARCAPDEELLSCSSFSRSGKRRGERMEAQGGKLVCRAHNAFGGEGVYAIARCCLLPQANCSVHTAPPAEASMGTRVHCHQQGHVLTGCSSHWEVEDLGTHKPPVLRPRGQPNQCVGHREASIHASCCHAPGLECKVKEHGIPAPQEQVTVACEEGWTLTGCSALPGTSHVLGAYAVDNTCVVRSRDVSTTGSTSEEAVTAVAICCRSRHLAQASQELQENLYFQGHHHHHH
T1 sequence (Q12809 whole entry): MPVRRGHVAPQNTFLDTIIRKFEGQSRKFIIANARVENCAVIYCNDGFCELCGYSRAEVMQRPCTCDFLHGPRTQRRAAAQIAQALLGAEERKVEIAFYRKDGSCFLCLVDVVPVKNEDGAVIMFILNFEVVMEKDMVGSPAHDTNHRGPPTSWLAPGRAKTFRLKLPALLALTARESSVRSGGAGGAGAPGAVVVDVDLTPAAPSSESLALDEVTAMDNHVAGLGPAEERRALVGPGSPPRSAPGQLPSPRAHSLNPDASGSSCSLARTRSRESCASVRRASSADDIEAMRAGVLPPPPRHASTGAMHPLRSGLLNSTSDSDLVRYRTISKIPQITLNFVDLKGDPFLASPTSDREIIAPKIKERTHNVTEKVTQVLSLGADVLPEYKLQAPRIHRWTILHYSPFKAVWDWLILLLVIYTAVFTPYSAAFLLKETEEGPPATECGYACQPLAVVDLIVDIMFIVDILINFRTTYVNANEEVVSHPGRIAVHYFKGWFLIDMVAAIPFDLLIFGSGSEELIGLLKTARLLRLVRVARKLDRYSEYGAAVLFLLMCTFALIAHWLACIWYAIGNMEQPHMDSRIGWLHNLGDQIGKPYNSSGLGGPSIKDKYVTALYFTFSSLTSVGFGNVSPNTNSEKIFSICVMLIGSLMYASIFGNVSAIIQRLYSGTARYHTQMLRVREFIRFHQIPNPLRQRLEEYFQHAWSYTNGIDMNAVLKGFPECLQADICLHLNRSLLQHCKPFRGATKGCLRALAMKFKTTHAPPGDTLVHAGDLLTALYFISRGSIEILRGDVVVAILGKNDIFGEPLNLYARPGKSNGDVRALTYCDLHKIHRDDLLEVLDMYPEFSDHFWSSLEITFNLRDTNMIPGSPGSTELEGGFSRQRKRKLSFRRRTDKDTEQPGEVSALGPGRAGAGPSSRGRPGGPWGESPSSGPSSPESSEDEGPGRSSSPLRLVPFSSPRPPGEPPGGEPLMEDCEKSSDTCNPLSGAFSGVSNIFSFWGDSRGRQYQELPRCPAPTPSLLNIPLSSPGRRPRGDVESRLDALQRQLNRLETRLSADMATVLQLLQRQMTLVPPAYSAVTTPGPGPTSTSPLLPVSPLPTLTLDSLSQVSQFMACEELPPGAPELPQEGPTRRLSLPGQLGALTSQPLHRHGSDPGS
Chain of GSK3β (Glycogen synthase kinase-3 beta) (P49841 whole entry): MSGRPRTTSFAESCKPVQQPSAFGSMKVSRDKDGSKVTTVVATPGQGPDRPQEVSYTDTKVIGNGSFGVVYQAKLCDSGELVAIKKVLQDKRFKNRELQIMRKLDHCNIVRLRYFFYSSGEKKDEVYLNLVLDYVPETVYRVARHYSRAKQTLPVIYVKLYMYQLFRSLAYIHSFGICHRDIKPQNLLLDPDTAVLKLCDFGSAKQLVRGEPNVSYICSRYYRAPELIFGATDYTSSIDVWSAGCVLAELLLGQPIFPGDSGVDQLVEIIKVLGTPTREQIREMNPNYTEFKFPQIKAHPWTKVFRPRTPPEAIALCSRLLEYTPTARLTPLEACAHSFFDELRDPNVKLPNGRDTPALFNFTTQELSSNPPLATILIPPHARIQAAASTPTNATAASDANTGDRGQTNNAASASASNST

The term pIC50 denotes the IC50 on a negative log10 scale, so that one unit is a factor of ten. On to `COc1cccn(-c2ccc(N[C@H]3CC[C@H](Nc4ncc(C(=O)NC5COC5)nn4)C3)nc2)c1=O` [Example 153, 3-(((1S,3S)-3-((3-Methoxy-2-oxo-2H-[1,3′-bipyridin]-6′-yl)amino)cyclopentyl)amino)-N-(oxetan-3-yl)-1,2,4-triazine-6-carboxamide], for which the pIC50 in assay [1] was less than 4.40; in assay [2] it was less than 5.00; on PCSK9 [3], 8.48. In addition, at PCSK9 [4], the pEC50 was 7.00.

As for `Cc1cnc(N[C@H]2CC[C@H](Nc3ccc(-n4cc(OC(F)F)ccc4=O)cn3)C2)nn1` [Example 185, 5-(Difluoromethoxy)-6′-(((1S,3S)-3-((6-methyl-1,2,4-triazin-3-yl)amino)cyclopentyl)amino)-2H-[1,3′-bipyridin]-2-one], the pIC50 was less than 4.40 in assay [1], 5.62 in assay [2] and 7.89 against PCSK9 [3]. In addition, the pEC50 on PCSK9 [4] is 6.70.

For `Cc1cnc(N[C@H]2CC[C@H](Nc3ccc(-n4cc(-c5cnn(C)c5)ccc4=O)cn3)C2)nn1` [Example 201, 6′-(((1S,3S)-3-((6-Methyl-1,2,4-triazin-3-yl)amino)cyclopentyl)amino)-5-(1-methyl-1H-pyrazol-4-yl)-2H-[1,3′-bipyridin]-2-one], the pIC50 in assay [1] is less than 4.40; in assay [2], 5.62; on PCSK9 [3], 8.07. In addition, the pEC50 at PCSK9 [4] was 6.70.

On to `COc1ccc(=O)n(-c2ccc(N[C@H]3CC[C@H](Nc4ncc(C(=O)NC5COC5)nn4)C3)nc2)c1` [Example 154, 3-(((1S,3S)-3-((5-Methoxy-2-oxo-2H-[1,3′-bipyridin]-6′-yl)amino)cyclopentyl)amino)-N-(oxetan-3-yl)-1,2,4-triazine-6-carboxamide], for which the pIC50 in assay [1] was less than 4.40; in assay [2] it was 5.41; against PCSK9 [3] it was 7.85. Also, at PCSK9 [4], the pEC50 was 6.70.

With `Cc1cnc(N[C@H]2CC[C@H](Nc3ccc(-n4cccc(C#N)c4=O)cn3)C2)nn1` [Example 136, 6′-(((1S,3S)-3-((6-Methyl-1,2,4-triazin-3-yl)amino)cyclopentyl)amino)-2-oxo-2H-[1,3′-bipyridine]-3-carbonitrile], the negative logarithm of the IC50 (pIC50) was less than 4.40 in assay [1], less than 5.00 in assay [2] and 8.52 at PCSK9 [3]. Besides, the pEC50 at PCSK9 [4] was 6.70.

`Cc1cnc(N[C@H]2CC[C@H](Nc3ccc(-n4cccc(-c5c[nH]nn5)c4=O)cn3)C2)nn1` [Example 200, 6′-(((1S,3S)-3-((6-Methyl-1,2,4-triazin-3-yl)amino)cyclopentyl)amino)-3-(1H-1,2,3-triazol-4-yl)-2H-[1,3′-bipyridin]-2-one]: the pIC50 in assay [1] was less than 4.40; in assay [2] it was less than 5.00; against PCSK9 [3], 8.60. Also, on PCSK9 [4], the pEC50 was 7.00.

For `Cc1cnc(N[C@H]2CC[C@H](Nc3ccc(-n4c(=O)n(C)c5ccc(C#N)nc54)cn3)C2)nn1` [Example 213, 1-Methyl-3-(6-(((1S,3S)-3-((6-methyl-1,2,4-triazin-3-yl)amino)cyclopentyl)amino)pyridin-3-yl)-2-oxo-2,3-dihydro-1H-imidazo[4,5-b]pyridine-5-carbonitrile], the pIC50 in assay [1] is less than 4.40; in assay [2], less than 5.00; at PCSK9 [3] it was 8.80. For the same molecule, the pEC50 at PCSK9 [4] was 6.70.

On to `O=C(NC1COC1)c1cnc(N[C@H]2CC[C@H](Nc3ccc(-n4cccc(OC(F)(F)F)c4=O)cn3)C2)nn1` [Example 160, N-(Oxetan-3-yl)-3-(((1S,3S)-3-((2-oxo-3-(trifluoromethoxy)-2H-[1,3′-bipyridin]-6′-yl)amino)cyclopentyl)amino)-1,2,4-triazine-6-carboxamide], for which the pIC50 in assay [1] was less than 4.40; in assay [2], less than 5.00; against PCSK9 [3], 8.16. Moreover, the pEC50 at PCSK9 [4] was 6.70.

`O=c1c(OC(F)F)cccn1-c1ccc(N[C@H]2CC[C@H](Nc3ncc(C4CC4)nn3)C2)nc1` [Example 165, 6′-(((1S,3S)-3-((6-Cyclopropyl-1,2,4-triazin-3-yl)amino)cyclopentyl)amino)-3-(difluoromethoxy)-2H-[1,3′-bipyridin]-2-one]: the pIC50 in assay [1] was 4.59; in assay [2], 5.29; against PCSK9 [3], 8.89. Moreover, the pEC50 at PCSK9 [4] is 7.00.

For `O=C(NC1COC1)c1cnc(N[C@H]2CC[C@H](Nc3ccc(-n4cccc(C(F)(F)F)c4=O)cn3)C2)nn1` [Example 161, N-(Oxetan-3-yl)-3-(((1S,3S)-3-((2-oxo-3-(trifluoromethyl)-2H-[1,3′-bipyridin]-6′-yl)amino)cyclopentyl)amino)-1,2,4-triazine-6-carboxamide], the pIC50 is less than 4.40 in assay [1], less than 5.00 in assay [2] and 8.42 against PCSK9 [3]. The pEC50 at PCSK9 [4] is 7.00.

`Cc1cnc(N[C@H]2CC[C@H](Nc3ccc(-n4ccc(Cl)cc4=O)cn3)C2)nn1` [Example 182, 4-Chloro-6′-(((1S,3S)-3-((6-methyl-1,2,4-triazin-3-yl)amino)cyclopentyl)amino)-2H-[1,3′-bipyridin]-2-one]: the negative logarithm of the IC50 (pIC50) in assay [1] was less than 4.40; in assay [2], less than 5.00; on PCSK9 [3], 8.03. Also, the pEC50 on PCSK9 [4] is 6.22.

With `Cc1ccc(=O)n(-c2ccc(N[C@H]3CC[C@H](Nc4ncc(C(=O)NC5COC5)nn4)C3)nc2)c1` [Example 156, 3-(((1S,3S)-3-((5-Methyl-2-oxo-2H-[1,3′-bipyridin]-6′-yl)amino)cyclopentyl)amino)-N-(oxetan-3-yl)-1,2,4-triazine-6-carboxamide], the negative logarithm of the IC50 (pIC50) is less than 4.40 in assay [1], less than 5.00 in assay [2] and 7.85 on PCSK9 [3]. For the same molecule, the pEC50 at PCSK9 [4] was 7.00.

Consider `Cc1cnc(N[C@H]2CC[C@H](Nc3ccc(-n4nccc(OC(F)F)c4=O)cn3)C2)nn1` [Example 281, 4-(Difluoromethoxy)-2-(6-(((1S,3S)-3-((6-methyl-1,2,4-triazin-3-yl)amino)cyclopentyl)amino)pyridin-3-yl)pyridazin-3(2H)-one], for which the negative logarithm of the IC50 (pIC50) was less than 4.40 in assay [1], less than 5.00 in assay [2] and 8.60 on PCSK9 [3]. Besides, the pEC50 at PCSK9 [4] was 6.52.

As to `COc1ccnn(-c2ccc(N[C@H]3CC[C@H](Nc4ncc(C)nn4)C3)nc2)c1=O` [Example 220, 4-Methoxy-2-(6-(((1S,3S)-3-((6-methyl-1,2,4-triazin-3-yl)amino)cyclopentyl)amino)pyridin-3-yl)pyridazin-3(2H)-one], the negative-log IC50 (pIC50) was less than 3.70 in assay [1], less than 5.00 in assay [2] and 8.77 against PCSK9 [3]. At PCSK9 [4], the pEC50 is 6.70.

As for `N#Cc1cccn(-c2ccc(N[C@H]3CC[C@H](Nc4ncc(C(=O)NC5COC5)nn4)C3)nc2)c1=O` [Example 159, 3-(((1S,3S)-3-((3-Cyano-2-oxo-2H-[1,3′-bipyridin]-6′-yl)amino)cyclopentyl)amino)-N-(oxetan-3-yl)-1,2,4-triazine-6-carboxamide], the figures for the pIC50 (in assay [1]; in assay [2]; against PCSK9 [3]) were less than 4.40, less than 5.00 and 8.39, respectively. In addition, the pEC50 on PCSK9 [4] is 7.00.

On to `Cc1cnc(N[C@H]2CC[C@H](Nc3ccc(-n4cccc(-c5cn[nH]c5)c4=O)cn3)C2)nn1` [Example 199, 6′-(((1S,3S)-3-((6-Methyl-1,2,4-triazin-3-yl)amino)cyclopentyl)amino)-3-(1H-pyrazol-4-yl)-2H-[1,3′-bipyridin]-2-one], for which the values for the negative-log IC50 (pIC50) (in assay [1]; in assay [2]; on PCSK9 [3]) were less than 4.40, less than 5.00 and 8.70, respectively. At PCSK9 [4], the pEC50 was 7.00.
